Each structure is given as a SMILES string.

These results are taken from patent US9447135B2, “Semi-synthetic mithramycin derivatives with anti-cancer activity” (UNIVERSITY OF KENTUCKY RESEARCH FOUNDATION, priority 2012, dated 2016).

The subject of test [1] is several cancer cell lines. The following applies: cited from earlier work.
The subject of test [2] is Ewing sarcoma (TC32, 5838, SKES1) and non-Ewing (A459 (lung) and PC3 (prostate)) cancer cell lines. Nature of the test: Selectivity assay, Ewing sarcoma versus non-Ewing cell panel (72 hr cytotoxicity).
Test [3] relates to TC32 Ewing sarcoma cell line. Put plainly: 72 hour cytotoxicity, TC32. To be noted: Ewing sarcoma cell line TC32, 72 hour; read-out: IC50 (nM) TC 32. Type of test: cell-based. The procedure:
(§1) The cytotoxicity of a subgroup of the MTM SA analogues was tested against various Ewing sarcoma cell lines and non-Ewing sarcoma cell lines over a 72 hour period. Each analogue was checked individually with a range of concentrations to determine the IC50 of the molecule in actively growing cell cultures.

In test [4] the test system is 5838 Ewing sarcoma cell line. Put plainly: 72 hour cytotoxicity, 5838. Type of test: cell-based. The following applies: Ewing sarcoma cell line 5838, 72 hour. On the procedure:
as §1

Test [5] deals with SK-ES-1 Ewing sarcoma cell line. Nature of the test: 72 hour cytotoxicity, SK-ES-1. Type of test: cell-based. The following applies: Ewing sarcoma cell line SK-ES-1, 72 hour. The procedure:
as §1

For test [6], the system named is TC71 Ewing sarcoma cell line. Nature of the test: 72 hour cytotoxicity, TC71. Type of test: cell-based. The following applies: Ewing sarcoma cell line TC71, 72 hour. The procedure: as §1
Test [7] concerns ES-2 Ewing sarcoma cell line. Put plainly: 72 hour cytotoxicity, ES-2. To be noted: Ewing sarcoma cell line ES-2, 72 hour. Type of test: cell-based. On the procedure:
as §1

The test system of test [8] is ES-3 Ewing sarcoma cell line. Put plainly: 72 hour cytotoxicity, ES-3. The following applies: Ewing sarcoma cell line ES-3, 72 hour. Type of test: cell-based. The procedure: as §1
In test [9] the test system is ES-4 Ewing sarcoma cell line. Nature of the test: 72 hour cytotoxicity, ES-4. Type of test: cell-based. The following applies: Ewing sarcoma cell line ES-4, 72 hour. On the procedure:
as §1

The test system of test [10] is ES-7 Ewing sarcoma cell line. Nature of the test: 72 hour cytotoxicity, ES-7. To be noted: Ewing sarcoma cell line ES-7, 72 hour. Type of test: cell-based. The procedure:
as §1

The test system of test [11] is ES-8 Ewing sarcoma cell line. Put plainly: 72 hour cytotoxicity, ES-8. Type of test: cell-based. To be noted: Ewing sarcoma cell line ES-8, 72 hour. The procedure: as §1
Test [12] relates to A549, human non-small cell lung cancer cells. Put plainly: 72 hour cytotoxicity, A549 (resazurin). To be noted: non-Ewing sarcoma cell line A549, 72 hour. Type of test: cell-based. On the procedure:
The cytotoxic effects of the side chain modifications of SA were investigated in order to determine whether the modification were beneficial to the drug structure. All cytotoxicity assays were performed with A549, human non-small cell lung cancer cells. A549 cells were cultured as specified from ATCC at 37° C., 5% CO2. The cells were added to a 96 well plate (5,000 cells/well) and permitted to attach for 24 h. After 24 h culture media were replaced with the side chain modified MTM SA derivative containing media at differing concentrations. The cells were incubated with the drug containing media for 72 hrs total (n=8). Cell viability was determined using a resazurin assay that signifies mitochondrial metabolic activity in living cells. […] of a 1 mM resazurin solution in PBS was added to the control and analogue-treated cells at the end of the treatment period. Cell viability was determined three hours later by reading the fluorescence at 560 nm (Ex)/590 nm (Em). The fluorescence signals were quantified using a Spectramax M5 plate reader (Molecular Devices) equipped with a SoftMaxPro software. Cytotoxicity was determined by calculating the half maximal inhibitory concentration (IC50) of each sample.
as §1

For test [13], the system named is U118 non-Ewing sarcoma cell line. Nature of the test: 72 hour cytotoxicity, U118. Type of test: cell-based. The following applies: non-Ewing sarcoma cell line U118, 72 hour. On the procedure: as §1
Test [14] relates to A673 Ewing sarcoma cell line. Nature of the test: 72 hour cytotoxicity, A673. Type of test: cell-based. To be noted: Ewing sarcoma cell line A673, 72 hour. The procedure: as §1
Test [15] relates to RDES Ewing sarcoma cell line. Nature of the test: 72 hour cytotoxicity, RDES. Type of test: cell-based. On the procedure: as §1
A short description of test [16]: 72 hour cytotoxicity, RH30. Type of test: cell-based. To be noted: Ewing sarcoma cell line RH30, 72 hour; read-out: IC50 (nM) RH 30. On the procedure:
as §1

The subject of test [17] is VCaP non-Ewing sarcoma cell line. Nature of the test: 72 hour cytotoxicity, VCaP. Type of test: cell-based. On the procedure:
as §1

The test system of test [18] is HCT-116 non-Ewing sarcoma cell line. Nature of the test: 72 hour cytotoxicity, HCT-116. Type of test: cell-based. The following applies: non-Ewing sarcoma cell line HCT-116, 72 hour. The procedure:
as §1

Regarding `COC(C(=O)O)[C@@H]1Cc2cc3cc(OC4CC(OC5CC(O)C(O)C(C)O5)C(O)C(C)O4)c(C)c(O)c3c(O)c2C(=O)[C@H]1OC1CC(OC2CC(OC3CC(C)(O)C(O)C(C)O3)C(O)C(C)O2)C(O)C(C)O1` (stereo partly drawn) [MTM SA, mithramycin side chain carboxylic acid], the “activity compared to the parent MTM” value in test [1] is recorded as “significantly decreased activity”.

As to `COC(=O)[C@H](C)NC(=O)[C@@H](OC)[C@@H]1Cc2cc3cc(OC4CC(OC5CC(O)C(O)C(C)O5)C(O)C(C)O4)c(C)c(O)c3c(O)c2C(=O)[C@H]1OC1CC(OC2CC(OC3CC(C)(O)C(O)C(C)O3)C(O)C(C)O2)C(O)C(C)O1` (stereo partly drawn) [MTM SA-Ala], in [2] (FIG. 9, right panel), the “selectivity against Ewing sarcoma cells relative to non-Ewing cells” value was 9 fold. Moreover, the “less potent than MTM” value in test [2] (against Ewing sarcoma cells, relative to MTM) is on record as “about 200 fold”. In test [2] (relative to MTM, 72 hr), the “higher selectivity than MTM against Ewing sarcoma relative to non-Ewing cell lines” value is recorded as 3 fold.

`CO[C@H](C(=O)C(C)=O)[C@@H]1Cc2cc3cc(OC4C[C@@H](OC5C[C@@H](O)[C@H](O)C(C)O5)[C@H](O)C(C)O4)c(C)c(O)c3c(O)c2C(=O)[C@H]1OC1C[C@@H](OC2C[C@@H](OC3C[C@](C)(O)[C@H](O)C(C)O3)[C@@H](O)C(C)O2)[C@H](O)C(C)O1` (stereo partly drawn) [MTM SDK]: in [1], the “activity compared to the parent MTM” value is listed as “increased activity”.

Turning to `COc1ccc2[nH]cc(CCNC(=O)[C@@H](OC)[C@@H]3Cc4cc5cc(OC6CC(OC7CC(O)C(O)C(C)O7)C(O)C(C)O6)c(C)c(O)c5c(O)c4C(=O)[C@H]3OC3CC(OC4CC(OC5CC(C)(O)C(O)C(C)O5)C(O)C(C)O4)C(O)C(C)O3)c2c1` (stereo partly drawn) [MTMSA-5-OMe Trypamine], the 50% inhibitory concentration (IC50) was 73 nM in test [3]; 78 nM in test [4]; 63 nM in test [5]; 58 nM in [6]; 84 nM in test [7]; 157 nM in test [8]. In addition, the IC50 in test [9] worked out at 63 nM; in test [10], 79 nM; in test [11], 75 nM; in [12] it was 84 nM; in test [13], 58 nM.

Regarding `COC(=O)[C@@H](OC)[C@@H]1Cc2cc3cc(OC4CC(OC5CC(O)C(O)C(C)O5)C(O)C(C)O4)c(C)c(O)c3c(O)c2C(=O)[C@H]1OC1CC(OC2CC(OC3CC(C)(O)C(O)C(C)O3)C(O)C(C)O2)C(O)C(C)O1` (stereo partly drawn) [MTMSA-Me ester], the IC50 in [3] was 67 nM; in [4], 193 nM; in test [5] it was 86 nM; in test [6] it was 46 nM; in [7], 76 nM; in [8], 90 nM. Also, the IC50 is 41 nM in test [9]; 51 nM in test [10]; 47 nM in test [11]; 99 nM in test [12]; 38 nM in test [13].

On to `COC(=O)[C@H](Cc1ccccc1)NC(=O)[C@@H](OC)[C@@H]1Cc2cc3cc(O[C@H]4C[C@@H](O[C@H]5C[C@@H](O)[C@H](O)[C@@H](C)O5)[C@H](O)[C@@H](C)O4)c(C)c(O)c3c(O)c2C(=O)[C@H]1O[C@H]1C[C@@H](O[C@H]2C[C@@H](O[C@H]3C[C@](C)(O)[C@H](O)[C@@H](C)O3)[C@H](O)[C@@H](C)O2)[C@H](O)[C@@H](C)O1` [MTMSA-Phe], for which the IC50 in test [14] came out at 109 nM; in [15], 94 nM; in test [16] it was 136 nM; in [7], 182 nM; in test [8], 363 nM; in test [9], 35 nM. The IC50 in test [10] stood at 61 nM; in test [11], 59 nM; in test [12], 398 nM; in [17] it was 32 nM; in [18] it was 21 nM. Also, the “potency and selectivity in killing of Ewing sarcoma cells” value in test [2] (compared with other MTM SA derivatives, FIG. 10) was “even more potent and highly selective in killing of Ewing sarcoma cells than other MTM SA derivatives”.

As for `CO[C@H](C(=O)NCCc1c[nH]c2ccc(O)cc12)[C@@H]1Cc2cc3cc(OC4CC(OC5CC(O)C(O)C(C)O5)C(O)C(C)O4)c(C)c(O)c3c(O)c2C(=O)[C@H]1OC1CC(OC2CC(OC3CC(C)(O)C(O)C(C)O3)C(O)C(C)O2)C(O)C(C)O1` (stereo partly drawn) [MTMSA-Serotonin], the IC50 in test [3] amounted to 667 nM; in [4], 690 nM; in test [5] it was 612 nM; in test [6], 671 nM; in test [7], 749 nM; in [8], 658 nM. The IC50 in [9] is 610 nM; in test [10] it was 753 nM; in test [11] it was 676 nM; in [12], more than 3000 nM; in test [13] it was 916 nM.

Consider `CO[C@H](C(=O)NCCc1c[nH]c2ccccc12)[C@@H]1Cc2cc3cc(OC4CC(OC5CC(O)C(O)C(C)O5)C(O)C(C)O4)c(C)c(O)c3c(O)c2C(=O)[C@H]1OC1CC(OC2CC(OC3CC(C)(O)C(O)C(C)O3)C(O)C(C)O2)C(O)C(C)O1` (stereo partly drawn) [MTMSA-Tryptamine], for which the IC50 in [3] is 110 nM; in [4], 439 nM; in test [5] it was 226 nM; in test [6], 78 nM; in [7] it was 155 nM; in test [8] it was 216 nM. The IC50 in test [9] came out at 90 nM; in test [10], 86 nM; in [11], 97 nM; in test [12], 196 nM; in test [13], 76 nM.

For the compound `COC(=O)[C@H](Cc1ccc(O)cc1)NC(=O)[C@@H](OC)[C@@H]1Cc2cc3cc(OC4CC(OC5CC(O)C(O)C(C)O5)C(O)C(C)O4)c(C)c(O)c3c(O)c2C(=O)[C@H]1OC1CC(OC2CC(OC3CC(C)(O)C(O)C(C)O3)C(O)C(C)O2)C(O)C(C)O1` (stereo partly drawn) [MTMSA-Tyr], the IC50 was determined as 133 nM in test [3]; 170 nM in test [4]; 306 nM in test [5]; 130 nM in test [6]; 263 nM in [7]; 266 nM in [8]. The IC50 worked out at 138 nM in test [9]; 189 nM in test [10]; 171 nM in test [11]; 867 nM in test [12]; 231 nM in test [13].

The IC50 is the concentration needed to halve the response being measured.
